Experimental data as given in PMC9061857, “A fluorogenic probe for granzyme B enables in-biopsy evaluation and screening of response to anticancer immunotherapies” (Nature Communications, 2022).
The star is where a group is joined. AMC = Cc1cc(=O)oc2cc(N*)ccc12

Key:
human GzmB (hGzmB) = target: T1, human GzmB (hGzmB) (Homo sapiens, UniProt P10144); test: HPLC conversion of fluorogenic peptides by hGzmB; assay type: biochemical; conditions: TRIS buffer, 37 °C
T1 construct: For active GzmB vs pro-GzmB, p < 0.0001
Method: (§1) Supplementary Figure 1. Reactivity of fluorogenic substrates against human GzmB and limits of detection. a) Reaction conversion rates (by HPLC-UV detection at 350 nm) for Ac-IEPD-AMC (50 μM) in TRIS buffer (see Methods) at 37 °C containing different concentrations of hGzmB. Data presented as mean values±SEM (n=3 independent biological experiments). b) Reaction conversion rates (by HPLC-UV detection at 500 nm) for the tetrapeptide T1 (25 μM) in TRIS buffer at 37 °C containing different concentrations of hGzmB. Data presented as mean values±SEM (3 independent biological experiments).
(§2) Source data provided as a Source Data file.
(§3) (1 picture or pasted object on this page, not shown here)
Supplementary Table 1. Chemical structures and reactivity of FRET-based tetrapeptides against human GzmB.
Code Structure Linker Quencher HPLC conversion HPLC conversion […]
Supplementary Table 2. Sequences and reactivity of FRET-based hexapeptides against […]
Code Peptide sequence HPLC conversion
H1 Ile-Glu-Pro-Asp-Ala-Gly 75%
H2 Ile-Glu-Pro-Asp-Ser-Gly 80%
H3 Ile-Glu-Pro-Asp-Ser-Leu 80%
H4 Ile-Glu-Pro-Asp-Trp-Leu 82%
H6 Ile-Glu-Pro-Asp-Trp-Arg 40%
H7 Ile-Glu-Pro-Asp-Arg-Leu 60%
H5m Ile-Glu-Phe-Asp-Ala-Leu 70%

hGzmB = test: Limit of detection of hGzmB by probe fluorescence; assay type: biochemical, human; conditions: limit of detection of hGzmB (Fig. S1)
Method: as §1, §2, §3
Supplementary Figure 4. Comparative enzyme selectivity and limit of detection for […]
Ac-IEPD-AMC (all at 25 μM) after incubation for 90 min at 37 °C with hGzmB (light gray bars), human caspase-3 (dark gray bars) and hGzmA (white bars) (all enzymes used at 20 nM). Data presented as mean values±SEM (n=3). Excitation wavelengths: 450 nm (for […]
450 nm (for Ac-IEPD-AMC). b) Limit of detection of hGzmB by fluorescence emission […]
presented as mean values±SD (2 independent experiments with 3 technical replicates).

GzmB = conditions: 4-mer, fluorogenic dye; ref [39]; cited from earlier work
Text: Table 1 Summary of fluorescent peptide-based probes for GzmB. | column: Kcat (s^−1); KM (µM); Kcat/KM (M^−1 s^−1)

[1] = probe 25 μM (Ac-IEPD-AMC 50 μM), HPLC-UV

T1 sequence (P10144 21-247): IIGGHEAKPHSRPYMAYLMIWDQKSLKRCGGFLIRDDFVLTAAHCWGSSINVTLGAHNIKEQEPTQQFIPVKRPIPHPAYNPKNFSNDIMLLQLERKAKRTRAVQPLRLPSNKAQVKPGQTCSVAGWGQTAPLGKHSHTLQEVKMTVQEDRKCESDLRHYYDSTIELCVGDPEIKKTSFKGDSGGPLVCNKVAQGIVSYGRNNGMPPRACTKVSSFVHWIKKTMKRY

Ac-IEPD-{AMC}
HPLC conversion rate (human GzmB (hGzmB); 2h-20 nM hGzmB, Data 1): 0.5%
HPLC conversion rate (human GzmB (hGzmB); 2h-20 nM hGzmB, Data 2): 0.5%
HPLC conversion rate (human GzmB (hGzmB); 2h-20 nM hGzmB, Data 3): 0.5%
HPLC conversion rate (human GzmB (hGzmB); 2h-50 nM hGzmB, Data 1): 2.5%
HPLC conversion rate (human GzmB (hGzmB); 2h-50 nM hGzmB, Data 2): 2%
HPLC conversion rate (human GzmB (hGzmB); 2h-50 nM hGzmB, Data 3): 2.5%
HPLC conversion rate (human GzmB (hGzmB); 2h-100 nM hGzmB, Data 1): 7.5%
HPLC conversion rate (human GzmB (hGzmB); 2h-100 nM hGzmB, Data 2): 5%
HPLC conversion rate (human GzmB (hGzmB); 2h-100 nM hGzmB, Data 3): 6.5%
HPLC conversion rate (human GzmB (hGzmB); 6h-20 nM hGzmB, Data 1): 0.5%
HPLC conversion rate (human GzmB (hGzmB); 6h-20 nM hGzmB, Data 2): 0.5%
HPLC conversion rate (human GzmB (hGzmB); 6h-20 nM hGzmB, Data 3): 0.75%
HPLC conversion rate (human GzmB (hGzmB); 6h-50 nM hGzmB, Data 1): 3%
HPLC conversion rate (human GzmB (hGzmB); 6h-50 nM hGzmB, Data 2): 2%
HPLC conversion rate (human GzmB (hGzmB); 6h-50 nM hGzmB, Data 3): 2%
HPLC conversion rate (human GzmB (hGzmB); 6h-100 nM hGzmB, Data 1): 8.5%
HPLC conversion rate (human GzmB (hGzmB); 6h-100 nM hGzmB, Data 2): 7%
HPLC conversion rate (human GzmB (hGzmB); 6h-100 nM hGzmB, Data 3): 9%
HPLC conversion rate (human GzmB (hGzmB); 24h-20 nM hGzmB, Data 1): 1.5%
HPLC conversion rate (human GzmB (hGzmB); 24h-20 nM hGzmB, Data 2): 1%
HPLC conversion rate (human GzmB (hGzmB); 24h-20 nM hGzmB, Data 3): 1.5%
HPLC conversion rate (human GzmB (hGzmB); 24h-50 nM hGzmB, Data 1): 4%
HPLC conversion rate (human GzmB (hGzmB); 24h-50 nM hGzmB, Data 2): 2.5%
HPLC conversion rate (human GzmB (hGzmB); 24h-50 nM hGzmB, Data 3): 3.5%
HPLC conversion rate (human GzmB (hGzmB); 24h-100 nM hGzmB, Data 1): 13%
HPLC conversion rate (human GzmB (hGzmB); 24h-100 nM hGzmB, Data 2): 9%
HPLC conversion rate (human GzmB (hGzmB); 24h-100 nM hGzmB, Data 3): 12.5%
HPLC conversion (20 nM hGzmB, 2 h) (human GzmB (hGzmB); [1]): < 1%
HPLC conversion (100 nM hGzmB, 24 h) (human GzmB (hGzmB); [1]): 10%
LoD (hGzmB): 25 nM
Kcat/KM (GzmB): 3300 M⁻¹ s⁻¹
Km (GzmB): 160 µM
kcat (GzmB): 0.5 s⁻¹
